Each structure is given as a SMILES string.

In patent US9504752B2, “Sterilizer, oral cavity sterilizer, sterilization method, sterilization apparatus, and sterilizer evaluation method” (AZ CO., LTD., priority 2011, dated 2016) one finds sterilization effect data, which are given here for one compound.

For this test, the system named is Streptococcus aureus. The experiment in a line: Sterilization effect of hydrogen peroxide photolysis (laser 400±20 nm) with catalase activity inhibitor, viable count on BHI agar. Format: cell-based. The following applies: only hydrogen peroxide, no laser, no scutellaria, H(+)L(−)O(−); FIG. 4. On the procedure:
An experiment for examining an effect of the catalase activity inhibitor of enhancing a sterilization effect was conducted. In the experiment, […] which is a catalase-positive bacterium was used as a target of the sterilization. A bacterium suspension having a concentration of 10^7 cells/mL was prepared by using the bacterium and saline, and the suspension was used for the experiment. A semiconductor laser (product name: […] Experiment samples were prepared by using scutellaria as the catalase activity inhibitor, diluting the scutellaria with ultrapure water, followed by sterilization by filtration through a 0.22 μm filter, and then adding the scutellaria solution to the mixture liquids of bacterium suspension and hydrogen peroxide to attain final scutellaria concentrations of 0, 1, and 3 mg/mL. [table] The laser irradiation was performed immediately after preparing the experiment samples, and 50 μL of the sample after the irradiation and 50 μL of 5000 U/mL catalase were mixed to stop the reaction of hydrogen peroxide. After that, a 10-fold dilution series was prepared and was seeded on a BHI agar culture medium, followed by culturing under an aerophilic condition of 37° C. for 24 hours, and then evaluation of the sterilization effect was conducted. […]

Turning to `OO` [hydrogen peroxide], the sterilization effect result was “no sterilization effect”.
